Test results from patent US20160340322A1 (NISSAN CHEMICAL INDUSTRIES, LTD., priority 2013, published 2016).

Target: T1, Human T-type calcium channel (Cav 3.2) (Homo sapiens, UniProt O95180)
T1 construct: Edward Perez-Reyes, University of Virginia, USA; host or cells: HEK293
Test: Calcium Influx Inhibition Assay
Type: cell-based
Settings: human T-type calcium channel (Cav 3.2) expressing HEK293 cells; FLIPR Calcium 4 fluorescence; 30 min compound incubation; read-out: T-type calcium channel inhibition concentration IC50
Description: 1. Calcium Influx Inhibition Assay Human T-type calcium channel (Cav 3.2) expressing HEK293 cells were introduced from Prof. Edward Perez-Reyes, University of Virginia, USA. The calcium-sensitive fluorescent dye used was FLIPR Calcium 4 Assay Kit (Molecular Devices). To a black 96-well plate with a clear bottom coated with type I collagen, the human T-type calcium channel (Cav 3.2) expressing HEK293 cells were seeded and cultured overnight, and the culture medium was removed. A solution of the calcium-sensitive fluorescent dye was added, and the resultant plate was incubated at 37° C. in an atmosphere of 5% carbon dioxide for 30 minutes. To the plate, a diluted solution of a compound was added, and subjected to further incubation at 37° C. in an atmosphere of 5% carbon dioxide for 30 minutes. While fluorescence was continuously analyzed from the bottom with a FlexStation 3 (Molecular Devices), a calcium solution was added. […] Based on the rise value in the fluorescence from the base line, the inhibition percentage was calculated. The logarithms of compound concentrations were plotted with respect to the inhibition activities to obtain an IC50 value.

T1 sequence (O95180 whole entry): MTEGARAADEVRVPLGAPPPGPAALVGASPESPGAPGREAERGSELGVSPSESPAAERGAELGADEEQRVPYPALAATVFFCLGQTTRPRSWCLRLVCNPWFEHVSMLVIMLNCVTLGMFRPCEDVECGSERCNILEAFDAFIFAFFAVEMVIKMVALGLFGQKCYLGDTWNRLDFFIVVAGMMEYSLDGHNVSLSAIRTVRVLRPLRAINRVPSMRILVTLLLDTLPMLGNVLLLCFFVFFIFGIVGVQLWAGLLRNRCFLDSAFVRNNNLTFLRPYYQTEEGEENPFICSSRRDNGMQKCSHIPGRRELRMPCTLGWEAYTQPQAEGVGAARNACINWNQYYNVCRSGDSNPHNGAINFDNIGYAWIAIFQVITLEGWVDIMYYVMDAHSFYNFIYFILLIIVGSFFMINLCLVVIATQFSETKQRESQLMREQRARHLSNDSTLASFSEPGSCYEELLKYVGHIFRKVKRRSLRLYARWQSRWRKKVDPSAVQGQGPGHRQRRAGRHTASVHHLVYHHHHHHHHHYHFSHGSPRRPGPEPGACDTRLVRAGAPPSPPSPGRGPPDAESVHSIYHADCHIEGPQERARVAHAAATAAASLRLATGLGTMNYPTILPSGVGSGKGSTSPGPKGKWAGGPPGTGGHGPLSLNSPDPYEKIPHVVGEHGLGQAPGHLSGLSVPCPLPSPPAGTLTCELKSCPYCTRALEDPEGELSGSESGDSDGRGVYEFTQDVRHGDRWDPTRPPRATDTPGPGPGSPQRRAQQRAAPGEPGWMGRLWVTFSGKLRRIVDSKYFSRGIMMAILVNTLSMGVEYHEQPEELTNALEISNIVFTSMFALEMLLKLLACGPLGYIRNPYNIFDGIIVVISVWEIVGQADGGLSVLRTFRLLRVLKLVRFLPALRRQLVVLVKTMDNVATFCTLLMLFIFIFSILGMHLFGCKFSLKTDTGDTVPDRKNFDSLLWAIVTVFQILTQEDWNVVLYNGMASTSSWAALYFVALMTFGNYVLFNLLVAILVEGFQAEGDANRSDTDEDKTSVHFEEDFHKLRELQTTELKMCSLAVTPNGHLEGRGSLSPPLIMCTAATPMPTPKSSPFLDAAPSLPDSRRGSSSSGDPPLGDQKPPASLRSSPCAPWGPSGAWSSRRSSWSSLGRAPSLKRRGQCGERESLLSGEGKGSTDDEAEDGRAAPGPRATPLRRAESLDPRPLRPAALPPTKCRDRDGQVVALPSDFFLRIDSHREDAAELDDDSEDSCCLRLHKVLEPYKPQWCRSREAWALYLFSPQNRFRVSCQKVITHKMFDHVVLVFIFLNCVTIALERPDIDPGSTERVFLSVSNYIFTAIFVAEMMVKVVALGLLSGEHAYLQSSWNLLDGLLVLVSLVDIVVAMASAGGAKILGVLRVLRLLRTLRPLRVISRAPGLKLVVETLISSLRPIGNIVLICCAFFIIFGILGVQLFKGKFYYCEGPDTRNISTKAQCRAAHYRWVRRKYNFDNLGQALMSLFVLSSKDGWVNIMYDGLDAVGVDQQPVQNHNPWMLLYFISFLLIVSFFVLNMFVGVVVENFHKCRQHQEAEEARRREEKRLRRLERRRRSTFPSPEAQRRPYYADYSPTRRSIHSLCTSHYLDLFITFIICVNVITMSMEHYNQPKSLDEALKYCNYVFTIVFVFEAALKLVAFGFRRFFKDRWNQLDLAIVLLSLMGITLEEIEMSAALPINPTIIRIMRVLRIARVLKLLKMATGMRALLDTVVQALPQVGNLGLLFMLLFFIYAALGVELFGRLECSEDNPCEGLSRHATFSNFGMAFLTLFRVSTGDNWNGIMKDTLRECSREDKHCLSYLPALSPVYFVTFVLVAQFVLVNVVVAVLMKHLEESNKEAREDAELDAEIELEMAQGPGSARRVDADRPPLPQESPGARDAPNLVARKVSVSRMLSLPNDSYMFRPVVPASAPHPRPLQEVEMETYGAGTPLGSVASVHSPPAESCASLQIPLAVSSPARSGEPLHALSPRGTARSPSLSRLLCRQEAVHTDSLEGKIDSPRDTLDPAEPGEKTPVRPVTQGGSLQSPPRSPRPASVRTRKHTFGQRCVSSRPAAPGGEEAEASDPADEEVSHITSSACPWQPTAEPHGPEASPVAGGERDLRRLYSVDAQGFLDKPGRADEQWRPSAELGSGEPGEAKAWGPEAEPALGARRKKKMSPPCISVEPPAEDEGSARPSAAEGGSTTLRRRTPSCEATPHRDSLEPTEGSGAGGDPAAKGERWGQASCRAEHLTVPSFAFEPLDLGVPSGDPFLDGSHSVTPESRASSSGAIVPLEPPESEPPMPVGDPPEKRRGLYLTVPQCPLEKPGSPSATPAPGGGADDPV

IC50 [nM]	SMILES
190	O=c1nc(N2CCN(c3ccc(Cl)cc3)CC2)cnn1Cc1cnc(C(F)(F)F)s1 [Synthesis Example 20, 5-[4-(4-Chlorophenyl)piperazin-1-yl]-2-{[2-(trifluoromethyl)thiazol-5-yl]methyl}-1,2,4-triazin-3(2H)-one]
200	Cc1csc(C2=CCN(c3cnn(Cc4cnc(C(F)(F)F)s4)c(=O)n3)C[C@@H]2O)c1 [Synthesis Example 17]
570	O=c1nc(N2CCc3cc(C(F)(F)F)ccc3C2)cnn1Cc1cnc(C(F)(F)F)s1 [Synthesis Example 44, 5-[6-(trifluoromethyl)-3,4-dihydroisoquinolin-2-(1H)-yl]-2-{[2-(trifluoromethyl)thiazol-5-yl]methyl}-1,2,4-triazin-3(2H)-one]
32	Cc1nc(N2CCN(c3cnn(Cc4ccc(C(F)(F)F)s4)c(=O)n3)CC2)ccc1F [Synthesis Example 33]
4.8	Cc1ccc(C2=CCN(c3cnn(Cc4ccc(C(F)(F)F)s4)c(=O)n3)C[C@@H]2O)o1 [Synthesis Example 37, (R)-5-[5-Hydroxy-4-(5-methylfuran-2-yl)-5,6-dihydropyridin-(2H)-yl]-2-{[5-(trifluoromethyl)thiophen-2-yl]methyl}-1,2,4-triazin-3(2H)-one]
30	O=c1nc(N2CC=C(c3ccc(F)cc3)[C@@H](O)C2)cnn1Cc1cnc(C(F)(F)F)s1 [Synthesis Example 11, (R)-5-[4-(4-Fluorophenyl)-5-hydroxy-5,6-dihydropyridin-1(2H)-yl]-2-{[2-(trifluoromethyl)thiazol-5-yl]methyl}-1,2,4-triazin-3(2H)-one]
29	O=c1nc(N2CCN(c3ccc(Cl)cc3)CC2)cnn1Cc1ccc(C(F)(F)F)s1 [Synthesis Example 41, 5-[4-(4-Chlorophenyl)piperazin-1-yl]-2-{[5-(trifluoromethyl)thiophen-2-yl]methyl}-1,2,4-triazin-3(2H)-one]
7.9	Cc1ccc(C2=CCN(c3cnn(Cc4ccc(C(F)(F)F)s4)c(=O)n3)C[C@@H]2O)cc1F [Synthesis Example 52, (R)-5-[4-(3-Fluoro-4-methylphenyl)-5-hydroxy-5,6-dihydropyridin-1(2H)-yl]-2-{[5-(trifluoromethyl)thiophen-2-yl]methyl}-1,2,4-triazin-3(2H)-one]
670	Cc1cc(N2CCN(c3cnn(Cc4cnc(C(F)(F)F)s4)c(=O)n3)CC2)cs1 [Synthesis Example 23, 5-[4-(5-Methylthiophen-3-yl)piperazin-1-yl]-2-{[2-(trifluoromethyl)thiazol-5-yl]methyl}-1,2,4-triazin-3(2H)-one]
94	O=c1nc(N2CC=C(c3ccc(F)cc3)[C@@H](O)C2)cnn1Cc1ccc(OC(F)F)nc1 [Synthesis Example 28, (R)-2-{[6-(Difluoromethoxy)pyridin-3-yl]methyl}-5-[4-(4-fluorophenyl)-5-hydroxy-5,6-dihydropyridin-1(2H)-yl]-1,2,4-triazin-3(2H)-one]
3.4	NC1CN(c2cnn(Cc3ccc(C(F)(F)F)s3)c(=O)n2)CC=C1c1ccc(F)cc1 (stereo not shown) [Synthesis Example 36, 5-[5-Amino-4-(4-fluorophenyl)-5,6-dihydropyridin-1(2H)-yl]-2-{[5-(trifluoromethyl)thiophen-2-yl]methyl}-1,2,4-triazin-3(2H)-one]
3.1	O=c1nc(N2CC=C(c3ccc(F)c(Cl)c3)[C@@H](O)C2)cnn1Cc1ccc(C(F)(F)F)s1 [Synthesis Example 54, (R)-5-[4-(3-Chloro-4-fluorophenyl)-5-hydroxy-5,6-dihydropyridin-1(2H)-yl]-2-{[5-(trifluoromethyl)thiophen-2-yl]methyl}-1,2,4-triazin-3(2H)-one]
61	O=c1nc(N2CCN(c3ccc(F)c(Cl)c3)CC2)cnn1Cc1ccc(C(F)(F)F)s1 [Synthesis Example 34]
600	COc1ccc2c(c1)CCN(c1cnn(Cc3ccc(C(F)(F)F)s3)c(=O)n1)C2C (stereo not shown) [Synthesis Example 42, 5-[6-Methoxy-1-methyl-3,4-dihydroisoquinolin-2(1H)-yl]-2-{[5-(trifluoromethyl)thiophen-2-yl]methyl}-1,2,4-triazin-3(2H)-one]
35	O=c1nc(N2CCN(c3ccc(F)cc3)CC2)cnn1Cc1ccc(OCc2ccc(F)cc2)cc1 [Synthesis Example 4, 2-{4-[(4-Fluorobenzyl)oxy]benzyl}-5-[4-(4-fluorophenyl)piperazin-1-yl]-1,2,4-triazin-3(2H)-one]
6	O=c1nc(N2CC=C(c3ccc(F)cc3)[C@@H](O)C2)cnn1Cc1ccc(C(F)(F)F)s1 [Synthesis Example 7, (R)-5-[4-(4-Fluorophenyl)-5-hydroxy-5,6-dihydropyridin-1(2H)-yl]-2-{[5-(trifluoromethyl)thiophene-2-yl]methyl}-1,2,4-triazin-3(2H)-one]
110	O=c1nc(N2CC=C(c3ccc(F)cc3)[C@@H](O)C2)cnn1Cn1ccc(C(F)(F)F)n1 [Synthesis Example 46, (R)-5-[4-(4-Fluorophenyl)-5-hydroxy-5,6-dihydropyridin-(2H)-yl]-2-{[3-(trifluoromethyl)-1H-pyrazol-1-yl]methyl}-1,2,4-triazin-3(2H)-one]
24	O=c1nc(N2CC=C(c3ccc(F)cc3)CC2)cnn1Cc1ccc(C(F)(F)F)s1 [Synthesis Example 6, 5-[4-(4-Fluorophenyl)-5,6-dihydropyridine-1(2H)-yl]-2-{[5-(trifluoromethyl)thiophen-2-yl]methyl}-1,2,4-triazin-3(2H)-one]
54	O=c1nc(N2CC=C(c3ccc(F)c(Cl)c3)[C@@H](O)C2)cnn1Cc1cnc(C(F)(F)F)s1 [Synthesis Example 43, (R)-5-[4-(3-Chloro-4-fluorophenyl)-5-hydroxy-5,6-dihydropyridin-1(2H)-yl]-2-{[2-(trifluoromethyl)thiazol-5-yl]methyl}-1,2,4-triazin-3(2H)-one]
64	O=c1nc(N2Cc3ccc(OC(F)F)cc3C(O)C2)cnn1Cc1ccc(C(F)(F)F)s1 (stereo not shown)
180	CCOc1ccc2c(c1)C(O)CN(c1cnn(Cc3ccc(C(F)(F)F)s3)c(=O)n1)C2 (stereo not shown) [Synthesis Example 16]
130	Cc1ccc(C2=CCN(c3cnn(Cc4cnc(C(F)(F)F)s4)c(=O)n3)C[C@@H]2O)cc1F [Synthesis Example 45, (R)-5-[4-(3-Fluoro-4-methylphenyl)-5-hydroxy-5,6-dihydropyridin-1(2H)-yl]-2-{[2-(trifluoromethyl)thiazol-5-yl]methyl}-1,2,4-triazin-3(2H)-one]
1000	O=c1nc(N2Cc3ccc(OC(F)F)cc3C(O)C2)cnn1Cc1cnc(C(F)(F)F)s1 (stereo not shown) [Synthesis Example 55]
170	O=c1nc(N2CCc3cc(C(F)(F)F)ccc3C2)cnn1Cc1ccc(C(F)(F)F)s1 [Synthesis Example 53, 5-[6-(trifluoromethyl)-3,4-dihydroisoquinolin-2(1H)-yl]-2-{[5-(trifluoromethyl)thiophen-2-yl]methyl}-1,2,4-triazin-3(2H)-one]
4900	Cn1cc(C2=CCN(c3cnn(Cc4cnc(C(F)(F)F)s4)c(=O)n3)C[C@@H]2O)cn1 [Synthesis Example 24, (R)-5-[5-Hydroxy-4-(1-methyl-1H-pyrazol-4-yl)-5,6-dihydropyridin-1(2H)-yl]-2-{[2-(trifluoromethyl)thiazol-5-yl]methyl}-1,2,4-triazin-3(2H)-one]
